Data published in US20180000778A1, “SMALL MOLECULE ANTAGONISTS OF DUSP5 AND METHODS OF USE” (THE MEDICAL COLLEGE OF WISCONSIN, INC., priority 2015, published 2018).

Legend:
DUSP5 PD(WT) = biological target: T1, DUSP5 PD(WT) (Homo sapiens, UniProt Q16690); assay: pNPP phosphatase activity assay with DUSP5 PD(WT); type: biochemical
T1 construct: hexa-histidine (N); made in house; host or cells: E. coli BL21(DE3)
T1 sequence (Q16690 178-319 limits assumed): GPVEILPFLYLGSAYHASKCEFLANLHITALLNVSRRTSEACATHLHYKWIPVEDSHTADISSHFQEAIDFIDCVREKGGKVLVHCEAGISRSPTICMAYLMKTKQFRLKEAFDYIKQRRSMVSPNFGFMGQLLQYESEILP
From the text: p-Nitrophenolphosphatase (pNPP) Activity Assay.
To measure enzymatic activity of the DUSP5 PD and the inhibitory capacity of selected molecules, an in vitro phosphatase assay was developed based on previous studies (27). In this assay, DUSP5 PD dephosphorylates the substrate p-nitrophenol phosphate (pNPP, Sigma Aldrich), yielding p-nitrophenolate, which absorbs at 405 nm with an extinction coefficient of 18,000 M-1 cm-1.
Thus, an increase in absorbance at 405 nm corresponds to the turnover of pNPP top-nitrophenolate. The assay was initially optimized in 1 mL quartz cuvettes, then was subsequently optimized for and validated in a 96-well plate format. All IC50 values were obtained using the 96-well plate assay format (see below). The assay buffer contained 100 mM Tris, 100 mM sodium chloride, 5 mM magnesium chloride, and 1 mM dithiothreitol (DTT) at pH 7.5. The pNPP substrate was prepared as a 50 mM stock by dissolving the solid substrate in assay buffer. The DUSP5 PD and pNPP were assayed initially in a cuvette (1 mL total volume) and initial velocities were fitted to the Michaelis-Menten equation (1)
where v is the initial velocity, Vmax is the maximum velocity, Km is the Michaelis constant, and [S] is the concentration of pNPP. Data were fitted using a nonlinear least squares fit to eq. 1, with GraphPad Prism 6 software.
For the 96-well plate validation assay, sodium orthovanadate (Sigma Aldrich) was utilized as a positive control for inhibition (Swarup et al., Biochem Biophys Res Commun. 1982; 107:1104-9.) at a final concentration of 10 μM, to completely block activity. All plate assays were performed in standard 96-well clear bottom plates (Thermo Scientific Nunc) with a total assay volume of 200 μL, using a SpectraMax M5 Microplate Reader (Molecular Devices). The plate validation assay was performed with replicate columns of positive control wells, negative control wells and blank wells. Blank columns contained only buffer and pNPP. Negative control (uninhibited) contained buffer, pNPP, and DUSP5 PD; and, positive control contained the same components, but also contained 10 μM sodium orthovanadate. The plate was then shaken and allowed to equilibrate in the spectrophotometer at 25° C. for 30 min. After incubation, 4 μL of a […] was dispensed into appropriate wells utilizing a single-channel pipette. This produced a final enzyme concentration of 1 μM. Before a read was taken, the plate was shaken for five seconds. The initial rate for the DUSP5 PD reaction was linear for approximately 90 min; and, the plate was kept in the spectrophotometer at 25° C. for an additional 80 min after the kinetic read. The endpoint reading was subsequently taken at 90 min after initiation of reaction. Slopes from the kinetic read, as well as single-point absorbance values at the 90-minute endpoint read, were then averaged. For blank wells and positive control wells, both slope values (continuous assay) and single point absorbance values (fixed time assay) were approximately zero, as expected. Standard deviations were calculated and a Z′ value (Zhang et al., J Biomol Screening. 1999; 4:67-73) subsequently determined using the following equation: […]
IC50 values were obtained using the assay described above, in 96 well plates. The maximum inhibitor concentration screened in any plate was […] and the minimum was 1.5 μM. The IC50 plate was designed so that the first column of wells served as blanks, with wells containing only buffer and substrate. The second column of wells functioned as the plate negative control, with each well containing buffer, substrate and enzyme. The remaining wells in the plate contained buffer, substrate, enzyme, and varying amounts of inhibitor, with inhibitor concentration increasing from left to right across the plate. Data points were collected in triplicate, and inhibitor concentrations were chosen to provide data equally spread on a logarithmic scale. […]

mutant DUSP5 = mutant DUSP5 (Homo sapiens, UniProt Q16690, S147P); assay: Restoration of mutant DUSP5 function
CDC25B = CDC25B (Homo sapiens, UniProt P30305); assay: Phosphatase profiling, Biomol Green; type: biochemical; conditions: 30 μM, triplicate
Method: (§1) Assays were performed to profile compound CSDDD2320 against 21 phosphatase targets at 1 concentration (30 μM) in triplicate measurements. The aim was to identify whether the compound can affect the activity of the various phosphatase targets selected.
(§2) The PTPN6 (SHP1), PTPRF (LAR), PP1A, PP1B, PP2A, PTPN12(PTP-PEST), PTPN11(SHP2), CDC25A, CDC25B, CDC25C, PP2Ca, and PP2Cg phosphatase activity was determined by performing assays at 37° C. for 15 minutes in a final volume of 50 μl according to the following assay reaction recipe:
(§3) Component 1. 10 μl of diluted active protein phosphatase
(§4) Component 2. 5 μl of 1 mM tyrosine phosphopeptide-2 substrate (for PTPN6, PTPRF, PTPN12, and PTPN11) or threonine phosphopeptide substrate (for PP1A, PP1B, PP2A and PP2Cg) or PI(3,4,5)P3 substrate (for PTEN) or OMFP substrate (for CDC25A, CDC25B and CDC25C)
(§5) Component 3. 25 μl of phosphatase assay buffer
(§6) Component 4. 10 μl of compound (150 μM) or 10% DMSO
(§7) The assay was started by incubating the reaction mixture at 37° C. for 15 minutes. After the 15 minutes incubation period, the assay was terminated by the addition of 100 μl of Biomol Green reagent. The absorbance of the reaction solution was measured in a spectrophotometer at 650 nm. Blank control was set up that included all the assay components except the addition of the tyrosine phosphopeptide-2 substrate or related substrate (replace with equal volume of phosphatase assay buffer). The corrected activity for various phosphatase targets was determined by removing the blank control value.

PP1B = PP1B (Homo sapiens, UniProt P62140); assay: Phosphatase profiling, Biomol Green; type: biochemical; conditions: 30 μM, triplicate; negative = inhibition
Method: as §1, §2, §3, §4, §5, §6, §7

PP1A = PP1A (Homo sapiens, UniProt P62136); assay: Phosphatase profiling, Biomol Green; type: biochemical; conditions: 30 μM, triplicate; negative = inhibition
Method: as §1, §2, §3, §4, §5, §6, §7

PTPN12 (PTP-PEST) = PTPN12 (PTP-PEST) (Homo sapiens, UniProt Q05209); assay: Phosphatase profiling, Biomol Green; type: biochemical; conditions: 30 μM, triplicate; negative = inhibition
Method: as §1, §2, §3, §4, §5, §6, §7

PTPRF (LAR) = PTPRF (LAR) (Homo sapiens, UniProt P10586); assay: Phosphatase profiling, Biomol Green; type: biochemical; conditions: 30 μM, triplicate
Method: as §1, §2, §3, §4, §5, §6, §7

PP2Cg = PP2Cg (Homo sapiens, UniProt O15355); assay: Phosphatase profiling, Biomol Green; type: biochemical; conditions: 30 μM, triplicate
Method: as §1, §2, §3, §4, §5, §6, §7

CDC25C = CDC25C (Homo sapiens, UniProt P30307); assay: Phosphatase profiling, Biomol Green; type: biochemical; conditions: 30 μM, triplicate; positive = activation
Method: as §1, §2, §3, §4, §5, §6, §7

Sequence of PP2Cg (O15355 whole entry): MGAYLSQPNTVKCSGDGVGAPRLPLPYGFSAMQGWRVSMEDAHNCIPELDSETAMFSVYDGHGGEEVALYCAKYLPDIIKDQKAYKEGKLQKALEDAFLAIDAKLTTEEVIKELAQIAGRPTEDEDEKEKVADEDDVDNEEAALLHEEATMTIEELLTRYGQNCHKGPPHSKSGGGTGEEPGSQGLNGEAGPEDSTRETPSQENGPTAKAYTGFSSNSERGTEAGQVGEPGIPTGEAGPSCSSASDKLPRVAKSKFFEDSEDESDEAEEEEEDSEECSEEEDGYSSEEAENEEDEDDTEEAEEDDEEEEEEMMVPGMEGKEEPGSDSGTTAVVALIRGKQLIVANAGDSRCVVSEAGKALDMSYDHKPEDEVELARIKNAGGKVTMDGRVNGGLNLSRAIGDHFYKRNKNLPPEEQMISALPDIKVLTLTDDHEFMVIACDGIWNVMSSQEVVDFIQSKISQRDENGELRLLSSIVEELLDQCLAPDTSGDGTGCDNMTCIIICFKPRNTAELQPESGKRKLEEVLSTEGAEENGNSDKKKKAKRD
Sequence of CDC25B (P30305 whole entry, species assumed): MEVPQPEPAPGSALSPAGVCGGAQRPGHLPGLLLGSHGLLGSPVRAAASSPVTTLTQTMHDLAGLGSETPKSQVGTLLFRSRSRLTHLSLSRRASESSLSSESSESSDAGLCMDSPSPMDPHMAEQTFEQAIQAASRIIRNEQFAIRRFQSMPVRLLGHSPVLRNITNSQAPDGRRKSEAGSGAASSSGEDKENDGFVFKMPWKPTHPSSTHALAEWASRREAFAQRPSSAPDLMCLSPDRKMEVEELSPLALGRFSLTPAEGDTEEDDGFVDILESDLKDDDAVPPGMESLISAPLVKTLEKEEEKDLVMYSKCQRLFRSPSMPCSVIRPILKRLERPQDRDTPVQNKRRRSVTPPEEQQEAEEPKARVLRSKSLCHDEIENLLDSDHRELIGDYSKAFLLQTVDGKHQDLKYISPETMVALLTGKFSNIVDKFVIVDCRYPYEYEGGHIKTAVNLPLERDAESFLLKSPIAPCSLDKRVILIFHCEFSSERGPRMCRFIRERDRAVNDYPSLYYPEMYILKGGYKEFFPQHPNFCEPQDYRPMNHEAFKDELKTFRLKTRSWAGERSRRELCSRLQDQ
Sequence of PP1A (P62136 whole entry, species assumed): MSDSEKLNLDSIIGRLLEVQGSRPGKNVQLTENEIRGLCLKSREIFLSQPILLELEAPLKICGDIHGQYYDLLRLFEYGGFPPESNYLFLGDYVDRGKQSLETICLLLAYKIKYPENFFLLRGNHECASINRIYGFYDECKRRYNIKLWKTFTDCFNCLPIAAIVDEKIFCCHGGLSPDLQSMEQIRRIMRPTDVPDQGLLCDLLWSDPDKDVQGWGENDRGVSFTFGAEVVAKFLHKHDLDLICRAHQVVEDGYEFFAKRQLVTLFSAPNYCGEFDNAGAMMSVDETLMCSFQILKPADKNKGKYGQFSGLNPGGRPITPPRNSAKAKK
Sequence of CDC25C (P30307 whole entry, species assumed): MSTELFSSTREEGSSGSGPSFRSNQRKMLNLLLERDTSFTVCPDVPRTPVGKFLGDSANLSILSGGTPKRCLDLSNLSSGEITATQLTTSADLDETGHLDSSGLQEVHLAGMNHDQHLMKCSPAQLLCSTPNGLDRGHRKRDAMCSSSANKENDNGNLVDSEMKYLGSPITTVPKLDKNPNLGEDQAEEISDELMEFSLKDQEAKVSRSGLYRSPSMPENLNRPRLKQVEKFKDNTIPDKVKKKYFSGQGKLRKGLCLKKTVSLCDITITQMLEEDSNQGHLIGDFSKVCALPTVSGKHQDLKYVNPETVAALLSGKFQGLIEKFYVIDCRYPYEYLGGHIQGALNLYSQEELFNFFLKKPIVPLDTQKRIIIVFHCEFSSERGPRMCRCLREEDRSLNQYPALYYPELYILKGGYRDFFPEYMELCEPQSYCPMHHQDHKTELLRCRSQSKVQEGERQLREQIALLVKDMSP
Sequence of PTPRF (LAR) (P10586 30-1907, species assumed): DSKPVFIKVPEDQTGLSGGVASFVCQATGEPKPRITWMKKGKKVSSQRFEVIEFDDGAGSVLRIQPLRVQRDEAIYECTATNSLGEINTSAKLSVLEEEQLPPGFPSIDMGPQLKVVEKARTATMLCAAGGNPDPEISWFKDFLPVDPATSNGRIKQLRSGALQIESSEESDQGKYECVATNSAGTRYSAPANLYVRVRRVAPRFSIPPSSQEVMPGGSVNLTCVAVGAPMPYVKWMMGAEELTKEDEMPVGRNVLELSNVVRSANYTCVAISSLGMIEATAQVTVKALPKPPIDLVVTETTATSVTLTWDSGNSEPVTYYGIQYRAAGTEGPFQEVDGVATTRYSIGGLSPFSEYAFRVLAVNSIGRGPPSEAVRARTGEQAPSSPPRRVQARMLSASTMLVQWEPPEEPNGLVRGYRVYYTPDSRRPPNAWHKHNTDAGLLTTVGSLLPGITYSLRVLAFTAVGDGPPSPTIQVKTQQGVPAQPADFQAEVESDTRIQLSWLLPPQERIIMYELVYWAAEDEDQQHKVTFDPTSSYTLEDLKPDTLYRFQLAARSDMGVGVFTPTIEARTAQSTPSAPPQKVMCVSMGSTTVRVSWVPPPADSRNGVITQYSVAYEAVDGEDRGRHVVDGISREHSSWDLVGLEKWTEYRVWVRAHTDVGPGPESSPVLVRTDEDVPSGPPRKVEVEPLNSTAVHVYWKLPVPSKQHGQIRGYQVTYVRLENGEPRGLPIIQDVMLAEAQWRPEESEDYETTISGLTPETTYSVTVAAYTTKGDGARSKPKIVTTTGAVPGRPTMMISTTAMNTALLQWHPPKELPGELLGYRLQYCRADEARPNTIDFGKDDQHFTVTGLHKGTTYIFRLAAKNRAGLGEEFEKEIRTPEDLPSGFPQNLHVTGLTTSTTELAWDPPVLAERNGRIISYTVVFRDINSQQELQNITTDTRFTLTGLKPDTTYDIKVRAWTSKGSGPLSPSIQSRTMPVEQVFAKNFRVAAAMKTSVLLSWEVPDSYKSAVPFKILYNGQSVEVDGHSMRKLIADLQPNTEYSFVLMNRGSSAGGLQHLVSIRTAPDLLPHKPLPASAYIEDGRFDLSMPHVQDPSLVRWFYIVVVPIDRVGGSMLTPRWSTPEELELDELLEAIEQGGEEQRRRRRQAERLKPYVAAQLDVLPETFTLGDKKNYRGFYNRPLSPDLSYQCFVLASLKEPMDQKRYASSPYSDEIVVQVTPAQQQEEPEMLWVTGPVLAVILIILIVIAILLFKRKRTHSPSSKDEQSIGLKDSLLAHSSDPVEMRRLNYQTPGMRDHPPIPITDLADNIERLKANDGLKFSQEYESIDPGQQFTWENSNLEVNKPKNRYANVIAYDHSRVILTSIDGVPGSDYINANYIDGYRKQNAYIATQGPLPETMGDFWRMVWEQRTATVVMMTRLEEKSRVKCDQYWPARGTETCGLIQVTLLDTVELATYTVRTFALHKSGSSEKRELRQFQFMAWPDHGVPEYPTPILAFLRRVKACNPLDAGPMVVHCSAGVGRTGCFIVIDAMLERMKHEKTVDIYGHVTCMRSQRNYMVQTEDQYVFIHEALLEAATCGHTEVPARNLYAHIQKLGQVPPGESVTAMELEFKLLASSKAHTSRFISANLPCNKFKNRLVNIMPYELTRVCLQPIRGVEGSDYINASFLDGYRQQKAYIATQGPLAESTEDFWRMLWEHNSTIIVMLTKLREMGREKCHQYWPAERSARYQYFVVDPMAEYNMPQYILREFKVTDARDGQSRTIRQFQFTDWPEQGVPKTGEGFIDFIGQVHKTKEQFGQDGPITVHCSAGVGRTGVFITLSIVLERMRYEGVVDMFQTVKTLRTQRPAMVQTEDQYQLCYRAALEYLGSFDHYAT
Sequence of mutant DUSP5 (Q16690 whole entry S147P): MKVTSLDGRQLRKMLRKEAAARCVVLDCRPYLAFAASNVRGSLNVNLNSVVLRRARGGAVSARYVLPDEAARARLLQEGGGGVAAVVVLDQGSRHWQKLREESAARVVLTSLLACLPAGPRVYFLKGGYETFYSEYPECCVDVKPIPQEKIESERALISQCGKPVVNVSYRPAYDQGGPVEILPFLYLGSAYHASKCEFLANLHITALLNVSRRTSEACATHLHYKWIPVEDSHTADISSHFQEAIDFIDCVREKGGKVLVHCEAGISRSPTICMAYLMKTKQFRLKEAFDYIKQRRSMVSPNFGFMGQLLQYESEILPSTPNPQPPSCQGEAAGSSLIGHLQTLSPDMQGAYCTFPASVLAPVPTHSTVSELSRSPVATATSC
Sequence of PP1B (P62140 whole entry, species assumed): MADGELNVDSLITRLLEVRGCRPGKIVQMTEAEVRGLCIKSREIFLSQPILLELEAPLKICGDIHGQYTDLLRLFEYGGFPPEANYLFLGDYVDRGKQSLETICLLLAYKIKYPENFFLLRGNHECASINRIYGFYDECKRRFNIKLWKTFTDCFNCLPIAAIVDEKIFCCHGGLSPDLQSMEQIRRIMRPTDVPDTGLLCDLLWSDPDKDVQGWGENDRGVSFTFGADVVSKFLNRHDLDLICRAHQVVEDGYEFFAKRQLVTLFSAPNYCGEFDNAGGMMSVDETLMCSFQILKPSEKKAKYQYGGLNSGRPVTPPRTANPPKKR

SMILES | IC50's, range in words (DUSP5 PD(WT); enzyme inhibition (FIG. 3)) | effect on mutant DUSP5 function (mutant DUSP5) | IC50 (DUSP5 PD(WT); pNPP assay with DUSP5 PD) [mM] | IC50 (DUSP5 PD(WT); phosphatase domain alone, pNPP) [mM] | % Change (activity change compared to control) (CDC25B) [%] | % Change (activity change compared to control) (PP1B) [%] | % Change (activity change compared to control) (PP1A) [%] | % Change (activity change compared to control) (PTPN12 (PTP-PEST)) [%] | % Change (activity change compared to control) (PTPRF (LAR)) [%] | % Change (activity change compared to control) (PP2Cg) [%] | % Change (activity change compared to control) (CDC25C) [%]
O=S(=O)([O-])c1ccc2[nH]c3c(S(=O)(=O)[O-])cc(S(=O)(=O)[O-])cc3c2c1.[Na+].[Na+].[Na+] [RR505, Carbazole-1,3,6-trisulfonic acid, Trisodium Salt] | mM range | appears to restore mutant DUSP5's function | – | – | – | – | – | – | – | – | –
O=S(=O)(O)c1cc(O)c2c(S(=O)(=O)O)cccc2c1 [RR527] | – | – | 0.484 | 33 | 0 | −1 | −3 | −1 | 0 | 0 | 4
